{
  "source": "patent US9034628B2",
  "about": "“Induction of gene expression using a high concentration sugar mixture” (Danisco US Inc., priority 2002, dated 2015)",
  "origin": "cited, not measured here",
  "system": "main cellulase genes in Trichoderma, cbh1, cbh2, egl1, and egl2",
  "data": [
    {"smiles": "OC[C@H]1O[C@@H](O[C@H]2C(O)O[C@H](CO)[C@@H](O)[C@@H]2O)[C@H](O)[C@@H](O)[C@@H]1O", "note": "(some centres unmarked) [sophorose]", "values": [
      {"measurement": "Expression of the cellulase genes", "setting": "carbon source available for growth", "result": "induced several thousand fold"},
      {"measurement": "expression level of the major cellobiohydrolase 1 (cbh1)", "setting": "media containing inducing carbon source compared with glucose containing media (Ilmen et al. 1997)", "result": "up-regulated several thousand fold"}
    ]}
  ]
}
